Here are results for 28 compounds from PubChem BioAssay (NCI).

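Results reflect a 48-hour exposure of cells in 96-well plates to compound at five concentrations. GI50 marks 50% less growth. TGI is the concentration that stops growth completely.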

The first assay has as its system TK-10 renal. In words: inhibition of tumour cell growth, NCI panel, 48 h.
Turning to `CC(=O)[C@@]12O[C@@H]1CC1C3CCC4=CC(O)CCC4(C)C3CCC12C` (stereo partly specified), the GI50 is 15.9 µM and the TGI turned out to be 56.9 µM.

With `CCOC(=O)NC(=O)c1cn(CCCO)c(=O)[nH]c1=O`, the TGI was above 100 µM.

In the case of `CN(C)c1nc(=Nc2ccc(N=c3nc(N(C)C)ss3)cc2)ss1`, the TGI is above 31.6 µM.

`CCc1cc(Cc2cc(CC)c(NC(=O)C(=O)Cc3ccccn3)c(CC)c2Cl)c(Cl)c(CC)c1NC(=O)C(=O)Cc1ccccn1` returned a TGI above 100 µM.

Turning to `O=C1c2cc3c(cc2-c2c1c1ccc(F)cc1c(=O)n2CCCNCCO)OCO3`, the GI50 is 0.148 µM and the TGI turned out to be 0.487 µM.

`C[Si](C)(C)C1(Sc2ccccc2)SCCCS1` had a TGI above 100 µM.

`Cc1cc(-c2ccc3nc(C4CCOCC4)n(CCOC(F)(F)F)c3c2)cn(C)c1=O` yielded a TGI of 4.64 µM.

For `c1ccc(COc2cccc3ccc[n+](Cc4ccccc4)c23)cc1`, the TGI was 94.6 µM.

Regarding `O=S1(=O)OCCOS(=O)(=O)C1Br`, the TGI is above 100 µM.

Regarding `CCOC(=O)C(=C=C=C(c1ccccc1)c1ccccc1)C(=O)OCC`, the TGI worked out at 31.3 µM.

Compound `CC1=CC(O)(c2ccc(-c3ccccc3Cl)cc2)OC1=O` (stereo unspecified) came in with a TGI above 100 µM.

Turning to `OCCCCCNCc1cc2cc3c(cc2c2cc(OCc4ccccc4)ccc12)OCO3`, the GI50 is 1.55 µM and the TGI was 2.95 µM.

In turn, `C/C(=N\NC(=S)NC(CCC(=O)O)C(=O)O)c1ccccn1` (stereo unspecified) registered a TGI above 100 µM.

With `C#CC1(O)CCC2C3CCc4cc(Oc5nc(F)nc(-c6c7ccccc7c7sc8ccccc8n67)n5)ccc4C3CC[C@@]21C` (stereo partly specified), the TGI was above 100 µM.

Compound `Cc1ccc(NC(=O)c2cc3cc(N=Nc4ccccc4C(=O)O)ccc3oc2=O)cc1` had a TGI above 100 µM.

On to `COc1ccc(S(=O)(=O)NNS(C)(=O)=O)cc1`, for which the TGI was above 100 µM.

In turn, `CCN1c2ccccc2C(C(SC)S(=O)(=O)c2ccc(C)cc2)c2c1[nH]c(=O)n(C)c2=O` (stereo unspecified) yielded a TGI above 100 µM.

For the compound `COC(OC)C(C)CC(=O)N(C)C` (stereo unspecified), the TGI is above 100 µM.

For the next assay, the system named is SNB-19 CNS. In words: inhibition of tumour cell growth, NCI panel, 48 h.
As for `O=c1cc(-c2ccccc2)oc2cc(OCCCOc3ccc4c(=O)cc(-c5ccccc5)oc4c3)ccc12`, the TGI was above 100 µM.

`Clc1ccc(C(c2ccc(Cl)cc2)c2ccccn2)cc1` returned a TGI of 51.5 µM.

On to `CC(C)=Cc1cc(C(=O)Nc2ccc(Cl)c(Cl)c2)nc(N)n1`, for which the TGI is above 100 µM.

Take `COc1ccc([C@H]2[C@@H](F)C(=O)N2c2cc(OC)c(OC)c(OC)c2)cc1F`: the GI50 was 0.302 µM and the TGI was above 100 µM.

`CCCCCCN(CCCCCC)C(=O)Cc1c2n(c3ccccc13)Cc1ccccc1-2`: the TGI is above 100 µM.

Turning to `CCCCCCCCC/C=C1\CCC(CN2CCOCC2)C1=O` (stereo unspecified), the TGI came out at 23.5 µM.

Take `O=c1[nH]c(Nc2nc3ccccc3[nH]2)nc(O)c1-c1ccccc1`: the TGI is above 100 µM.

In turn, `CC(=O)OC1COC(n2ccc3cc(Br)c([N+](=O)[O-])cc32)C(OC(C)=O)C1OC(C)=O` (stereo unspecified) had a TGI above 100 µM.

Take `CC(=O)[C@@]12O[C@@H]1CC1C3CCC4=CC(O)CCC4(C)C3CCC12C` (stereo partly specified): the GI50 was 38.8 µM and the TGI is above 100 µM.

The compound `CCOC(=O)NC(=O)c1cn(CCCO)c(=O)[nH]c1=O` displayed a TGI above 100 µM.

In turn, `CN(C)c1nc(=Nc2ccc(N=c3nc(N(C)C)ss3)cc2)ss1` had a TGI above 100 µM.

`CCc1cc(Cc2cc(CC)c(NC(=O)C(=O)Cc3ccccn3)c(CC)c2Cl)c(Cl)c(CC)c1NC(=O)C(=O)Cc1ccccn1`: the TGI is above 100 µM.

In the case of `O=C1c2cc3c(cc2-c2c1c1ccc(F)cc1c(=O)n2CCCNCCO)OCO3`, the GI50 is 0.0431 µM and the TGI stood at 1.16 µM.

`C[Si](C)(C)C1(Sc2ccccc2)SCCCS1` came in with a TGI above 100 µM.

Consider `c1ccc(COc2cccc3ccc[n+](Cc4ccccc4)c23)cc1`, for which the TGI is above 100 µM.

Turning to `O=S1(=O)OCCOS(=O)(=O)C1Br`, the TGI was above 100 µM.

The compound `CCOC(=O)C(=C=C=C(c1ccccc1)c1ccccc1)C(=O)OCC` showed a TGI of 55.4 µM.

On to `CC1=CC(O)(c2ccc(-c3ccccc3Cl)cc2)OC1=O` (stereo unspecified), for which the TGI was above 100 µM.

Compound `C/C(=N\NC(=S)NC(CCC(=O)O)C(=O)O)c1ccccn1` (stereo unspecified) showed a TGI above 100 µM.

For the compound `C#CC1(O)CCC2C3CCc4cc(Oc5nc(F)nc(-c6c7ccccc7c7sc8ccccc8n67)n5)ccc4C3CC[C@@]21C` (stereo partly specified), the TGI was above 100 µM.

As to `Cc1ccc(NC(=O)c2cc3cc(N=Nc4ccccc4C(=O)O)ccc3oc2=O)cc1`, the TGI is above 100 µM.

The compound `COc1ccc(S(=O)(=O)NNS(C)(=O)=O)cc1` returned a TGI above 100 µM.

As to `O=C(/C=C\c1ccc(Cl)c(Cl)c1)c1ccc(Cl)cc1Cl`, the TGI was found to be 56.2 µM.

Regarding `CCN1c2ccccc2C(C(SC)S(=O)(=O)c2ccc(C)cc2)c2c1[nH]c(=O)n(C)c2=O` (stereo unspecified), the TGI is above 100 µM.

For `COC(OC)C(C)CC(=O)N(C)C` (stereo unspecified), the TGI is above 100 µM.

The next assay deals with EKVX NSCLC. Kind of assay: inhibition of tumour cell growth, NCI panel, 48 h.
As for `O=c1cc(-c2ccccc2)oc2cc(OCCCOc3ccc4c(=O)cc(-c5ccccc5)oc4c3)ccc12`, the TGI was above 100 µM.

The compound `Clc1ccc(C(c2ccc(Cl)cc2)c2ccccn2)cc1` came in with a TGI of 52.5 µM.

Compound `CC(C)=Cc1cc(C(=O)Nc2ccc(Cl)c(Cl)c2)nc(N)n1` had a TGI above 100 µM.

Turning to `Cn1cnc([N+](=O)[O-])c1Sc1nc2ccccc2[nH]1`, the TGI was found to be 36.9 µM.

With `COc1ccc([C@H]2[C@@H](F)C(=O)N2c2cc(OC)c(OC)c(OC)c2)cc1F`, the GI50 was 0.202 µM and the TGI is above 100 µM.

`CCCCCCN(CCCCCC)C(=O)Cc1c2n(c3ccccc13)Cc1ccccc1-2` showed a TGI above 100 µM.

Compound `CCCCCCCCC/C=C1\CCC(CN2CCOCC2)C1=O` (stereo unspecified) showed a TGI of 33.9 µM.

`CC(=O)OC1COC(n2ccc3cc(Br)c([N+](=O)[O-])cc32)C(OC(C)=O)C1OC(C)=O` (stereo unspecified) registered a TGI above 100 µM.

`CC(=O)[C@@]12O[C@@H]1CC1C3CCC4=CC(O)CCC4(C)C3CCC12C` (stereo partly specified): the GI50 is above 100 µM and the TGI was above 100 µM.

Take `CCOC(=O)NC(=O)c1cn(CCCO)c(=O)[nH]c1=O`: the TGI was above 100 µM.

Compound `CN(C)c1nc(=Nc2ccc(N=c3nc(N(C)C)ss3)cc2)ss1` showed a TGI above 100 µM.

The compound `CCc1cc(Cc2cc(CC)c(NC(=O)C(=O)Cc3ccccn3)c(CC)c2Cl)c(Cl)c(CC)c1NC(=O)C(=O)Cc1ccccn1` displayed a TGI above 100 µM.

As for `O=C1c2cc3c(cc2-c2c1c1ccc(F)cc1c(=O)n2CCCNCCO)OCO3`, the GI50 was 0.211 µM and the TGI is 1.21 µM.

Turning to `C[Si](C)(C)C1(Sc2ccccc2)SCCCS1`, the TGI was above 100 µM.
